Test results reported in patent US11370798B2 (Vertex Pharmaceuticals Incorporated, priority 2012, dated 2022).

test system: HCT116 colorectal cancer cells; test: Cisplatin sensitization assay (96 h cell viability MTS); format: cell-based; conditions: compound and Cisplatin added simultaneously, Cisplatin sensitization value;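 further: Test-compound concentration that lowers the Cisplatin IC50 by a set fold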
Procedure, shortened: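 Viability read by MTS (1 h at 37° C) after 96 h co-exposure at 37° C, 5% CO2. Test compound and cisplatin were dosed simultaneously in a full concentration matrix, each 2-fold serially diluted from 10 μM final; sensitization values binned in μM.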

| SMILES | Cisplatin Sensitization Assay |
| --- | --- |
| Nc1nn2cc(F)cnc2c1C(=O)Nc1cnccc1N1CCC2(CCNC2)CC1 [I-N-255, N-(4-(2,8-diazaspiro[4.5]decan-8-yl)pyridin-3-yl)-2-amino-6-fluoropyrazolo[1,5-a]pyrimidine-3-carboxamide] | ++ (Cisplatin sensitization value>0.02 μM but <0.2 μM) |
| Nc1nn2cc(Cl)cnc2c1C(=O)Nc1cnccc1OCCCO [I-O-53, 2-amino-6-chloro-N-(4-(3-hydroxypropoxy)pyridin-3-yl)pyrazolo[1,5-a]pyrimidine-3-carboxamide] | +++ (Cisplatin sensitization value of <0.02 μM) |
| Nc1nn2cc(Cl)cnc2c1C(=O)Nc1cnccc1N1CCNCC1 [I-N-88, 2-amino-6-chloro-N-(4-(piperazin-1-yl)pyridin-3-yl)pyrazolo[1,5-a]pyrimidine-3-carboxamide] | ++ (Cisplatin sensitization value>0.02 μM but <0.2 μM) |
| CC1CN(c2ccncc2NC(=O)c2c(N)nn3cc(Cl)cnc23)CCN1C (stereo not drawn) [I-N-54, 2-amino-6-chloro-N-(4-(3,4-dimethylpiperazin-1-yl)pyridin-3-yl)pyrazolo[1,5-a]pyrimidine-3-carboxamide] | +++ (Cisplatin sensitization value of <0.02 μM) |
| Nc1nn2cc(F)cnc2c1C(=O)Nc1cnccc1O[C@H]1CCCNC1 [I-O-85, (S)-2-amino-6-fluoro-N-(4-(piperidin-3-yloxy)pyridin-3-yl)pyrazolo[1,5-a]pyrimidine-3-carboxamide] | +++ (Cisplatin sensitization value of <0.02 μM) |
| Nc1nn2cc(F)cnc2c1C(=O)Nc1cnccc1CN1CCCC1=O [I-C-76, 2-amino-6-fluoro-N-(4-((2-oxopyrrolidin-1-yl)methyl)pyridin-3-yl)pyrazolo[1,5-a]pyrimidine-3-carboxamide] | + (Cisplatin sensitization value>0.2 μM but <5 μM) |
| Nc1nn2cc(F)cnc2c1C(=O)Nc1cncc(F)c1N1CCC(C(=O)N2CC3CCC(C2)N3)CC1 [I-G-44, N-(4-(4-(3,8-diazabicyclo[3.2.1]octane-3-carbonyl)piperidin-1-yl)-5-fluoropyridin-3-yl)-2-amino-6-fluoropyrazolo[1,5-a]pyrimidine-3-carboxamide] | +++ (Cisplatin sensitization value of <0.02 μM) |
| Nc1nn2cc(Cl)cnc2c1C(=O)Nc1cnccc1N1CCNC(C(F)(F)F)C1 (stereo not drawn) [I-N-70, 2-amino-6-chloro-N-(4-(3-(trifluoromethyl)piperazin-1-yl)pyridin-3-yl)pyrazolo[1,5-a]pyrimidine-3-carboxamide] | ++ (Cisplatin sensitization value>0.02 μM but <0.2 μM) |
| Cn1c(-c2ccncc2NC(=O)c2c(N)nn3cc(F)cnc23)cccc1=O [I-C-58, 2-amino-6-fluoro-N-(1-methyl-6-oxo-1,6-dihydro-[2,4′-bipyridin]-3′-yl)pyrazolo[1,5-a]pyrimidine-3-carboxamide] | +++ (Cisplatin sensitization value of <0.02 μM) |
| Nc1nn2cc(F)cnc2c1C(=O)Nc1cncc(F)c1N1CCN2CCOC[C@H]2C1 [I-N-135, (R)-2-amino-6-fluoro-N-(5-fluoro-4-(hexahydropyrazino[2,1-c][1,4]oxazin-8(1H)-yl)pyridin-3-yl)pyrazolo[1,5-a]pyrimidine-3-carboxamide] | +++ (Cisplatin sensitization value of <0.02 μM) |
| N#CCc1cnc2c(C(=O)Nc3cnccc3OC3CCCOC3)c(N)nn2c1 (stereo not drawn) [I-O-41, 2-amino-6-(cyanomethyl)-N-(4-((tetrahydro-2H-pyran-3-yl)oxy)pyridin-3-yl)pyrazolo[1,5-a]pyrimidine-3-carboxamide] | +++ (Cisplatin sensitization value of <0.02 μM) |
| Nc1nn2cc(F)cnc2c1C(=O)Nc1cncc(C2CC2)c1N1CCN([C@@H]2CCOC2)CC1 [I-N-119, (R)-2-amino-N-(5-cyclopropyl-4-(4-(tetrahydrofuran-3-yl)piperazin-1-yl)pyridin-3-yl)-6-fluoropyrazolo[1,5-a]pyrimidine-3-carboxamide] | ++ (Cisplatin sensitization value>0.02 μM but <0.2 μM) |
| N#CCc1cnc2c(C(=O)Nc3cnccc3N3CCC(N)CC3)c(N)nn2c1 [I-N-2, 2-amino-N-(4-(4-aminopiperidin-1-yl)pyridin-3-yl)-6-(cyanomethyl)pyrazolo[1,5-a]pyrimidine-3-carboxamide] | +++ (Cisplatin sensitization value of <0.02 μM) |
| Nc1nn2cc(Cl)cnc2c1C(=O)Nc1cnccc1N1CCC(N2CCC3(COC3)C2)CC1 [I-N-99, N-(4-(4-(2-oxa-6-azaspiro[3.4]octan-6-yl)piperidin-1-yl)pyridin-3-yl)-2-amino-6-chloropyrazolo[1,5-a]pyrimidine-3-carboxamide] | +++ (Cisplatin sensitization value of <0.02 μM) |
| Nc1nn2cc(Cl)cnc2c1C(=O)Nc1cnccc1O[C@H]1CCOC1 [I-O-58, (S)-2-amino-6-chloro-N-(4-((tetrahydrofuran-3-yl)oxy)pyridin-3-yl)pyrazolo[1,5-a]pyrimidine-3-carboxamide] | +++ (Cisplatin sensitization value of <0.02 μM) |
| Cc1nc(C(F)(F)F)cn1-c1ccncc1NC(=O)c1c(N)nn2cc(F)cnc12 [I-N-30, 2-amino-6-fluoro-N-(4-(2-methyl-4-(trifluoromethyl)-1H-imidazol-1-yl)pyridin-3-yl)pyrazolo[1,5-a]pyrimidine-3-carboxamide] | ++ (Cisplatin sensitization value>0.02 μM but <0.2 μM) |
| CN1CCC(c2ccncc2NC(=O)c2c(N)nn3cc(F)cnc23)CC1 [I-C-1, 2-amino-6-fluoro-N-(4-(1-methylpiperidin-4-yl)pyridin-3-yl)pyrazolo[1,5-a]pyrimidine-3-carboxamide] | ++ (Cisplatin sensitization value>0.02 μM but <0.2 μM) |
| CS(=O)(=O)C1CCCN(c2ccncc2NC(=O)c2c(N)nn3cc(F)cnc23)C1 (stereo not drawn) [I-N-221, 2-amino-6-fluoro-N-(4-(3-(methylsulfonyl)piperidin-1-yl)pyridin-3-yl)pyrazolo[1,5-a]pyrimidine-3-carboxamide] | ++ (Cisplatin sensitization value>0.02 μM but <0.2 μM) |
| N#CCc1cnc2c(C(=O)Nc3cnccc3OCCCO)c(N)nn2c1 [I-O-40, 2-amino-6-(cyanomethyl)-N-(4-(3-hydroxypropoxy)pyridin-3-yl)pyrazolo[1,5-a]pyrimidine-3-carboxamide] | ++ (Cisplatin sensitization value>0.02 μM but <0.2 μM) |
| COC(=O)C1CCN(c2ccncc2NC(=O)c2c(N)nn3cc(Cl)cnc23)CC1 [I-N-74, methyl-1-(3-(2-amino-6-chloropyrazolo[1,5-a]pyrimidine-3-carboxamido)pyridin-4-yl)piperidine-4-carboxylate] | +++ (Cisplatin sensitization value of <0.02 μM) |
| CN1CCN(CC2CCN(c3c(F)cncc3NC(=O)c3c(N)nn4cc(F)cnc34)CC2)CC1=O [I-N-171, 2-amino-6-fluoro-N-(5-fluoro-4-(4-((4-methyl-3-oxopiperazin-1-yl)methyl)piperidin-1-yl)pyridin-3-yl)pyrazolo[1,5-a]pyrimidine-3-carboxamide] | +++ (Cisplatin sensitization value of <0.02 μM) |
| CN1CCN(C(=O)C2(C)CCN(c3c(F)cncc3NC(=O)c3c(N)nn4cc(F)cnc34)CC2)CC1 [I-G-54, 2-amino-6-fluoro-N-(5-fluoro-4-(4-methyl-4-(4-methylpiperazine-1-carbonyl)piperidin-1-yl)pyridin-3-yl)pyrazolo[1,5-a]pyrimidine-3-carboxamide] | +++ (Cisplatin sensitization value of <0.02 μM) |
| COc1ccncc1NC(=O)c1c(N)nn2cc(CC#N)cnc12 [I-O-26, 2-amino-6-(cyanomethyl)-N-(4-methoxypyridin-3-yl)pyrazolo[1,5-a]pyrimidine-3-carboxamide] | ++ (Cisplatin sensitization value>0.02 μM but <0.2 μM) |
| CNc1cc(OC)c(NC(=O)c2c(N)nn3cc(F)cnc23)cn1 [I-O-90, 2-amino-6-fluoro-N-(4-methoxy-6-(methylamino)pyridin-3-yl)pyrazolo[1,5-a]pyrimidine-3-carboxamide] | + (Cisplatin sensitization value>0.2 μM but <5 μM) |
| Cc1ncccc1-c1ccncc1NC(=O)c1c(N)nn2cc(F)cnc12 [I-C-20, 2-amino-6-fluoro-N-(2-methyl-[3,4′-bipyridin]-3′-yl)pyrazolo[1,5-a]pyrimidine-3-carboxamide] | +++ (Cisplatin sensitization value of <0.02 μM) |
| Nc1nn2cc(F)cnc2c1C(=O)Nc1cncc(Cl)c1N1CCN(C2CCOC2)CC1 (stereo not drawn) [I-N-124, 2-amino-N-(5-chloro-4-(4-(tetrahydrofuran-3-yl)piperazin-1-yl)pyridin-3-yl)-6-fluoropyrazolo[1,5-a]pyrimidine-3-carboxamide] | +++ (Cisplatin sensitization value of <0.02 μM) |
| C[N+]1([O-])CCN(C(=O)C2CCN(c3c(F)cncc3NC(=O)c3c(N)nn4cc(F)cnc34)CC2)CC1 [I-G-95, 4-(1-(3-(2-amino-6-fluoropyrazolo[1,5-a]pyrimidine-3-carboxamido)-5-fluoropyridin-4-yl)piperidine-4-carbonyl)-1-methylpiperazine 1-oxide] | +++ (Cisplatin sensitization value of <0.02 μM) |
| Nc1nn2cc(F)cnc2c1C(=O)Nc1cnccc1N1CCN2CCC1CC2 [I-N-18, N-(4-(1,4-diazabicyclo[3.2.2]nonan-4-yl)pyridin-3-yl)-2-amino-6-fluoropyrazolo[1,5-a]pyrimidine-3-carboxamide] | ++ (Cisplatin sensitization value>0.02 μM but <0.2 μM) |
| CN1C(=O)CCC12CCN(c1ccncc1NC(=O)c1c(N)nn3cc(F)cnc13)CC2 [I-N-235, 2-amino-6-fluoro-N-(4-(1-methyl-2-oxo-1,8-diazaspiro[4.5]decan-8-yl)pyridin-3-yl)pyrazolo[1,5-a]pyrimidine-3-carboxamide] | ++ (Cisplatin sensitization value>0.02 μM but <0.2 μM) |
| Nc1nn2cc(F)cnc2c1C(=O)Nc1cnccc1N1CCN(C2COC2)C2CC21 (stereo not drawn) [I-N-112, 2-amino-6-fluoro-N-(4-(5-(oxetan-3-yl)-2,5-diazabicyclo[4.1.0]heptan-2-yl)pyridin-3-yl)pyrazolo[1,5-a]pyrimidine-3-carboxamide] | + (Cisplatin sensitization value>0.2 μM but <5 μM) |
